# Assay results taken from patent EP2646421B1, “7-NITRO-5-PHENYL-1-(PYRROLIDIN-1-YLMETHYL)-1H-BENZO[E][1,4]DIAZEPIN-2(3H)-ONE AND OTHER BENZODIAZEPINE DERIVATIVES” (Pignataro, Giuseppe, priority 2010, dated 2012).
# What was measured:
# NCX2 = target: T1, NCX2 (Rattus norvegicus, UniProt P48768); experiment: Patch-clamp electrophysiology (whole-cell NCX currents), BHK-NCX2 cells; format: cell-based; settings: 10 nM, 10 minutes
# T1 construct: expressed in transfected cells
# Description: To further investigate the effects of this compound on the Na^+/Ca^2+ exchanger activity, we performed electrophysiological experiments on BHK cells stably transfected with each of NCX isoforms (named BHK-NCX1, BHK-NCX2 and BHK-NCX3).
# (§1) The activity of NCX was established by means of three different subclones of baby hamsted kidney (BHK) cells that were stably transfected with one of each NCX isoforms, named BHK-NCX1, BHK-NCX2 and BHK-NCX3. These cell lines were grown on plastic dishes in a mix of DMEM and Ham's F12 media (1:1) (Gibco, Invitrogen, MI, Italy) supplemented with 5% fetal bovine serum, 100 U/ml penicillin, and 100 µg/ml streptomycin (Sigma, St. Louis, Missouri, USA). Cells were cultured in a humidified 5% CO2 atmosphere and at the temperature of 37°C.
# NCX currents (/NCX) was recorded from BHK wild-type and BHK stably transfected cells with NCX1, NCX2, and NCX3 and all each mutated of single isoforrms by patch-clamp technique in whole-cell configuration. […] Data were acquired and analyzed by use of pClamp software (version 9.0, Molecular Devices). In brief, /NCX was recorded starting from a holding potential of -60 mV up to a short-step depolarization at +60 mV (60 ms) (He et al., 2003; Xiao et al., 2004). […] The current recorded in the descending portion of the ramp (from +60 to -120 mV) was used to plot the current-voltage (I-V) relation curve. […]
# NCX1 = target: T2, NCX1 (Canis lupus familiaris, UniProt P23685); experiment: Fura-2 AM single-cell microfluorimetry, BHK-NCX1 cells; format: cell-based; settings: 10 nM (Fig. 2)
# T2 construct: expressed in transfected cells
# Description: as §1
# NCX activity has been measured considering the variation of intracellular concentrations of Ca^2+ ions ([Ca^2+]i) due to its activation by means of single-cell microfluorimetry. […] In both cases, this probe will produce an emission at 510 nm; the ratio between the two emission relative to 340 and 380 excitation allow to quantify [Ca^2+]i in the time considering the calibration curve previously performed. […]
# Briefly, BHK cells wild type and/or BHK trasnsfected with NCX mutants, grown on glass coverslips, were loaded with Fura-2 acetoxymethyl ester (Fura-2AM) (10 µM) for 30 minutes at 37°C in normal Krebs solution containing the following (in mM): 5.5 KCI, 160 NaCl, 1.2 MgCl2, 1.5 CaCl2, 10 glucose, and 10 Hepes-NaOH, pH 7.4. […] Fura-2 fluorescence intensity was measured every 3 seconds. […]
# T2 sequence (P23685 33-970): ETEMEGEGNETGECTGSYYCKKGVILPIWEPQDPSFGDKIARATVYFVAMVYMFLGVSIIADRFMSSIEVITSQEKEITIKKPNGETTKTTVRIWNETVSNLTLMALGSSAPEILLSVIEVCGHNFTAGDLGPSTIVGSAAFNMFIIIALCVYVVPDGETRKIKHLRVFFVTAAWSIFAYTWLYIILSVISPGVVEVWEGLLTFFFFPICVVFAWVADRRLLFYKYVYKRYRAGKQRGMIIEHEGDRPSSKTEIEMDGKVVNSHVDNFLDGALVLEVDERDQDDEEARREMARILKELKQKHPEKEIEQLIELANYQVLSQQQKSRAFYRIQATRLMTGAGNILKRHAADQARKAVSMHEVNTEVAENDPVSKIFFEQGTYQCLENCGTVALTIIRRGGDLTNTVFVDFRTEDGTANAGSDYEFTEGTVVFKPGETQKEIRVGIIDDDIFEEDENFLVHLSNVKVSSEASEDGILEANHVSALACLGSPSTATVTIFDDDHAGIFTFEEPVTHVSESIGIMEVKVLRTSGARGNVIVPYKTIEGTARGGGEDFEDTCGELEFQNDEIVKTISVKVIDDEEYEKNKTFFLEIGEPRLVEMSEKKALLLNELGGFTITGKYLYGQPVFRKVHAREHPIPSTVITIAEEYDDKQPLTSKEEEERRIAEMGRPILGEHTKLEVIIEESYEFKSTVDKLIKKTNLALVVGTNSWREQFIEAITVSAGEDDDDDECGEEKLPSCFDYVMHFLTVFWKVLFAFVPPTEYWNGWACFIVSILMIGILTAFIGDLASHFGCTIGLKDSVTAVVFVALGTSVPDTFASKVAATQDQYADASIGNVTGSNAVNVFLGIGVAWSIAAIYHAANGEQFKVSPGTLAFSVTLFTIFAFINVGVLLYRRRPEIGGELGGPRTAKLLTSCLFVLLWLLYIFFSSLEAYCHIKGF
# T1 sequence (P48768 21-921): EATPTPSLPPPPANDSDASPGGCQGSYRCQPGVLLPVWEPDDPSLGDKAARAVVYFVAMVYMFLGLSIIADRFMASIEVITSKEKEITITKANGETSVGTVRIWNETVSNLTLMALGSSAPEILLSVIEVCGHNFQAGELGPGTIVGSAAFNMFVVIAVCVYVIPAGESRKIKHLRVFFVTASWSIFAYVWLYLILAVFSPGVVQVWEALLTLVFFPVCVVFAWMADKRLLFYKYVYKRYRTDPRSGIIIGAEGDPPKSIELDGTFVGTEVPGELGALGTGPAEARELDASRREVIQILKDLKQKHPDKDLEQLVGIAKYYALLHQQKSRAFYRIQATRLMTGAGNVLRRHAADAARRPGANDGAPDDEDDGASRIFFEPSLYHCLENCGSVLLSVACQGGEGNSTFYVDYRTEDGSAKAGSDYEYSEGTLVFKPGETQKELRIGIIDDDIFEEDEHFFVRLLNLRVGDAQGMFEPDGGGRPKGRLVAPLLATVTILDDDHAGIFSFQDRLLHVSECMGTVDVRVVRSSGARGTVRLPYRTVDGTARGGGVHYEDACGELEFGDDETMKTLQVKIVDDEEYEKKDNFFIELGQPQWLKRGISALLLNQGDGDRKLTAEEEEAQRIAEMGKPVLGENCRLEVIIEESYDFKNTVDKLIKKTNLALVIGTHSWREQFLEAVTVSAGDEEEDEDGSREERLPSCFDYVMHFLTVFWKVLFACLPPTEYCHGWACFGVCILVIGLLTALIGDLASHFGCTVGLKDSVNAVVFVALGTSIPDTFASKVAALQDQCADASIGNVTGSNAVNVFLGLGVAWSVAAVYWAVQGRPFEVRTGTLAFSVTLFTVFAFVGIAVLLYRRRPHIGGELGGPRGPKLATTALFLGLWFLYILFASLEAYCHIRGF
smiles,measurement,setting,value
"O=C1CN=C(c2ccccc2)c2cc([N+](=O)[O-])ccc2N1CN1CCCC1 [neurounina-1, 7-nitro-5-phenyl-1-(pyrrolidin-1-ylmethyl)-1H-benzo[e][1,4]diazepin-2(3H)-one]",increased forward and reverse activity of NCX2,NCX2,30%
same,increased reverse mode activity of NCX1,NCX1,30%
